Literature values, collected in paper PMC9889658, “The structure of MadC from Clostridium maddingley reveals new insights into class I lanthipeptide cyclases” (Frontiers in Microbiology, 2023).

Target: NisB
Conditions: dependent on maturation state; ref Mavaro et al., 2011; read-out: binding affinity
Text: This implies a higher relevance of the LP comp ...

Which Kd does the source give for “MSTKDFNLDLVSVSKKDSGASPRITSISLCTPGCKTGALMGCNMKTATCHCSIHVSK [unmodified prenisin, unmodified nisin precursor peptide]” here?
Its Kd is 1 µM.
